{"source": "ChEMBL document CHEMBL1201862", "about": "“PubChem BioAssay data set” (2004)", "key": {"Vero [1]": {"test_system": "Vero", "assay": "host cell cytotoxicity of antiviral hits, dose response, cytotoxicity control for West Nile virus antiviral project, secondary assay (AID 1650)", "assay_type": "functional", "settings": "Chlorocebus sabaeus"}, "BJ [2]": {"test_system": "BJ", "assay": "cytotoxicity toward Ras-transformed BJeLR fibroblasts, dose response, cell-based, alamar blue fluorescence, cherrypicked samples (AID 2631)", "assay_type": "functional", "settings": "Homo sapiens"}, "BJ [3]": {"test_system": "BJ", "assay": "cells", "assay_type": "functional, cell-based", "settings": "Homo sapiens"}, "BJ [4]": {"test_system": "BJ", "assay": "cytotoxicity toward BJ-TERT-LT-ST fibroblasts, dose response, cell-based, RAS-independent, luminescence (AID 1935);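 also: BJ fibroblasts immortalized with TERT plus LT and ST oncogenes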", "assay_type": "functional", "settings": "Homo sapiens"}, "[5]": {"assay": "cytotoxicity toward DRD oncogenic fibroblasts, dose response, cell-based, non-viral oncogenic, luminescence (AID 1934)", "assay_type": "functional", "settings": "Homo sapiens"}, "Vero [6]": {"test_system": "Vero", "assay": "cells", "assay_type": "functional", "settings": "Chlorocebus sabaeus"}, "Vero [7]": {"test_system": "Vero", "assay": "West Nile virus antiviral activity, cell-based, CPE readout (AID 1621)", "assay_type": "functional", "settings": "Chlorocebus sabaeus"}, "Vero [8]": {"test_system": "Vero", "assay": "cells", "assay_type": "functional, cell-based", "settings": "Chlorocebus sabaeus"}, "BJ [9]": {"test_system": "BJ", "assay": "cytotoxicity toward BJ-TERT fibroblasts, dose response, cell-based, RAS-independent, luminescence (AID 1933)", "assay_type": "functional", "settings": "Homo sapiens"}, "[10]": {"target": "NAD-dependent protein deacylase sirtuin-5, mitochondrial (Homo sapiens, UniProt Q9NXA8)", "sequence (Q9NXA8 whole entry)": "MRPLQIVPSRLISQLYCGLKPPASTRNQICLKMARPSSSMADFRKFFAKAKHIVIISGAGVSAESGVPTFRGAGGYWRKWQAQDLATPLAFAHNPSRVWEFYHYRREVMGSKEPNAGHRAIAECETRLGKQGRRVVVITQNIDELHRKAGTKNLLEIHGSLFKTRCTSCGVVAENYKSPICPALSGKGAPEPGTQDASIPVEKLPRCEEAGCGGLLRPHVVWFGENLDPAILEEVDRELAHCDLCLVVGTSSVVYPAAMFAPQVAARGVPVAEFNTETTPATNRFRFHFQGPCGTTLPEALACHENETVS", "assay": "SIRT5 deacylase inhibitors, dose response, biochemical, fluorescence imaging, cherry-pick, set 6 (AID 720597)"}, "[11]": {"target": "DNA dC->dU-editing enzyme APOBEC-3G (Homo sapiens, UniProt Q9HC16)", "sequence (Q9HC16 whole entry)": "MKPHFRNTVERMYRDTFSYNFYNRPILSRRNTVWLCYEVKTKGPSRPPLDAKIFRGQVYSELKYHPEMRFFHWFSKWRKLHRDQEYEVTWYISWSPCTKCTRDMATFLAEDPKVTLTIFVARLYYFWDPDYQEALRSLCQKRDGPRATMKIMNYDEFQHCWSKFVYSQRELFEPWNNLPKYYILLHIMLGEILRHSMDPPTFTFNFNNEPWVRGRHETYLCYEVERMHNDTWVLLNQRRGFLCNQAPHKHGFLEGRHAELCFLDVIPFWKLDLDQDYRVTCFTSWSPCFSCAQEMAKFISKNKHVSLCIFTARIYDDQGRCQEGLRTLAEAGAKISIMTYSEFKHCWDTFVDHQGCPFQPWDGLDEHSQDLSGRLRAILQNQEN", "assay_type": "functional"}, "14-3-3 protein gamma": {"target": "14-3-3 protein gamma (Homo sapiens, UniProt P61981)", "sequence (P61981 whole entry)": "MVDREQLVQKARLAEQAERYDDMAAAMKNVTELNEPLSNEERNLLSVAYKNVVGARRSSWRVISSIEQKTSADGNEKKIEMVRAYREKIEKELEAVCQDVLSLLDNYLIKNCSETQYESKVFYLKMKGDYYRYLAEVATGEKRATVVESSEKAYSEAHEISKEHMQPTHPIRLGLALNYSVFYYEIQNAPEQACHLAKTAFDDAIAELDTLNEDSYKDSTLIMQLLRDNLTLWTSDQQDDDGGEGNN", "assay": "modulators of 14-3-3 gamma client binding – dose response (AID 711)", "assay_type": "functional"}, "Bcl-2-like protein 10": {"target": "T1, Bcl-2-like protein 10 (Homo sapiens, UniProt Q9HD36)", "T1 sequence (Q9HD36 whole entry)": "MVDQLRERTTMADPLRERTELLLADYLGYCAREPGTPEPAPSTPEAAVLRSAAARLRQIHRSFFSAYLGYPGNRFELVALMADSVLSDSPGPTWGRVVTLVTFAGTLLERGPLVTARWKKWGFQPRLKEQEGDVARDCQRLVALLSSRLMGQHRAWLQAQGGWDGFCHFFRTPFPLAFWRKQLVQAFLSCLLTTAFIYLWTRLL", "assay": "displacers of TR3 peptide from Bcl-B, primary screen, selectivity assay for Bfl-1 inhibitor project, biochemical, fluorescence polarization, FITC-TR3 peptide (AID 748);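 also: fluorescence polarization from a fluorescein-labelled TR3 peptide binding purified Bcl-B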"}, "[12]": {"target": "DNA dC->dU-editing enzyme APOBEC-3A (Homo sapiens, UniProt P31941)", "sequence (P31941 whole entry)": "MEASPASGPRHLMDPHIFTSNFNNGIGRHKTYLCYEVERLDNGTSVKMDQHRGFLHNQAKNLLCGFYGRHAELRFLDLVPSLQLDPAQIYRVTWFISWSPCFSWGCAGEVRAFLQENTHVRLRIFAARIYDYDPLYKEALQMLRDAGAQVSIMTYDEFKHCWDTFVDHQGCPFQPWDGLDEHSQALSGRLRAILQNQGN", "assay": "Dose Response confirmation of small molecule APOBEC3A DNA Deaminase Inhibitors via a fluorescence-based single-stranded DNA deaminase assay. [Related pubchem assays (depositor defined):AID493011, AID493024]", "assay_type": "functional"}, "[13]": {"assay": "cytotoxicity in L-6 rat myocytes, dose response, cytotoxicity control, cell-based, plate reader, cherry-pick (AID 651896)", "assay_type": "functional"}, "[14]": {"assay": "T. b. rhodesiense proliferation inhibition, dose response, STIB900 strain, plate reader, cherry pick (AID 651893)", "assay_type": "functional, cell-based", "settings": "Trypanosoma brucei"}, "[15]": {"assay": "growth inhibition of intracellular T. cruzi, dose response, cell-based, plate reader, dry powder samples (AID 651845)", "assay_type": "functional"}, "[16]": {"assay": "L. donovani amastigote growth inhibition, dose response, axenic amastigotes, plate reader, cherry pick (AID 651891)", "assay_type": "functional, cell-based", "settings": "Leishmania donovani"}, "[17]": {"assay": "T. cruzi growth inhibition in host cells, dose response, cell-based, plate reader, dry powder, set 2 (AID 652275)", "assay_type": "functional"}, "[18]": {"assay": "intracellular Trypanosoma cruzi inhibitors in host cells – cell-based, plate reader, cherry-pick samples, set 3, dose response (AID 651818);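 also: compounds incubated with infected cells for about four days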", "assay_type": "functional"}, "[19]": {"assay": "T. cruzi intracellular amastigote growth inhibition, dose response, imaging, CA-I/72 strain, bovine embryo skeletal muscle, dry powder (AID 651885)", "assay_type": "functional, cell-based"}, "[20]": {"assay": "Inhibition of T. cruzi Tulahuen strain amastigotes in L-6 muscle cells Measured in Cell-Based and Microorganism Combination System Using Plate Reader - 2138-03_Inhibitor_Dose_CherryPick_Activity.", "assay_type": "functional", "settings": "Rattus norvegicus, L6"}, "[21]": {"assay": "Inhibition of Plasmodium falciparum NF54 Measured in Cell-Based System Using Plate Reader - 2138-11_Inhibitor_Dose_CherryPick_Activity.", "assay_type": "functional"}, "[22]": {"target": "T2, Low molecular weight phosphotyrosine protein phosphatase (Homo sapiens, UniProt P24666)", "T2 sequence (P24666 whole entry, canonical isoform)": "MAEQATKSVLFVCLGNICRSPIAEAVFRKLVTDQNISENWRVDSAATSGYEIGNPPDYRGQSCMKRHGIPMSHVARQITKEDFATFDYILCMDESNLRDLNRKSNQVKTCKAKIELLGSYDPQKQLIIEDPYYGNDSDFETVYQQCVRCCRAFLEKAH", "assay": "LMPTP phosphatase inhibitors, colorimetric pNPP readout, dose response, orthogonal assay, biochemical, absorbance, pNPP substrate, LMPTP-A isoform, set 2 (AID 743308)", "assay_type": "functional"}, "[23]": {"target": "T2, Low molecular weight phosphotyrosine protein phosphatase", "assay": "LMPTP phosphatase inhibitors, dose response, biochemical, OMFP substrate, fluorescence intensity, set 2 (AID 743307)", "assay_type": "functional"}, "[24]": {"assay": "HIV Env cell-cell fusion inhibitors, dose response, HIV entry, plate reader, dry powder (AID 687023)", "assay_type": "functional, cell-based"}, "[25]": {"assay": "CEM21 cell cytotoxicity, dose response, cytotoxicity control, plate reader, dry powder (AID 687026)", "assay_type": "functional, cell-based"}, "[26]": {"assay": "ZM109 Env clade C HIV-1 fusion inhibitors, dose response, HeLa effector, CEM target cells, luciferase, cherry-pick (AID 652058)", "assay_type": "functional, cell-based"}, "[27]": {"assay": "inhibitors of HIV Env-driven cell fusion, dose response, cherry-pick (AID 652057)", "assay_type": "functional, cell-based"}, "[28]": {"assay": "Luminescence Cell-Based Dose Response to Identify Activators of Luciferase Translation or Activity in H4-C Neuroglioblastoma Cells. [Related pubchem assays: 1829 (Project Summary), 1814 (Primary HTS)]", "assay_type": "functional"}, "[29]": {"assay": "Luminescence Cell-Based Dose Response to Identify Activators of 5'UTR Stem-Loop Driven Prion Protein mRNA Translation in H4-C Neuroglioblastoma Cells. [Related pubchem assays: 1829 (Project Summary), 1814 (Primary HTS)]", "assay_type": "functional"}, "[30]": {"assay": "Luminescence Cell-Based Dose Confirmation to Identify Activators of 5'UTR Stem-Loop Driven Alpha-Synuclein mRNA Translation in H4 Neuroglioblastoma Cells. [Related pubchem assays: 1829 (Project Summary), 1814 (Primary HTS)]", "assay_type": "functional"}, "H4": {"test_system": "H4", "assay": "Luminescence Cell-Based Dose Response HTS to Identify Activators of 5'UTR Stem-Loop Driven Prion Protein mRNA Translation in H4 Neuroglioblastoma Cells. [Related pubchem assays: 1829 (Project Summary), 1814 (Primary HTS)]", "assay_type": "functional", "settings": "Homo sapiens"}, "[31]": {"assay": "Luminescence Cell-Based Dose Response HTS to Identify Activators of Luciferase Translation or Activity in H4 […] Cells. [Related pubchem assays: 1829 (Project Summary), 1814 (Primary HTS)]", "assay_type": "functional"}}, "note": "Active and inactive are the calls of the source.", "data": [{"compound": "Cc1ccc(NC(=O)[C@H](Cc2c[nH]c3ccccc23)NC(=O)[C@@H]2Cc3ccccc3CN2)c(C)c1", "values": [{"measurement": "CC50", "setting": "Vero [1]", "result": "12.5 µM (active)"}, {"measurement": "EC50", "setting": "BJ [2]", "result": "> 133 µM (inactive)"}, {"measurement": "EC50", "setting": "BJ [3]", "result": "20.7 µM (active)"}, {"measurement": "EC50", "setting": "BJ [4]", "result": "> 150 µM (not active)"}, {"measurement": "EC50", "setting": "[5]", "result": "112 µM (inconclusive)"}, {"measurement": "CC50", "setting": "Vero [6]", "result": "15.9 µM (active)"}, {"measurement": "IC50", "setting": "Vero [7]", "result": "43.3 µM (active)"}, {"measurement": "IC50", "setting": "Vero [8]", "result": "1.91 µM (active)"}, {"measurement": "EC50", "setting": "BJ [9]", "result": "21.1 µM (active)"}]}, {"compound": "CCCNC(=O)Nc1ccc2c(c1)C(=O)N(C)[C@H]1CC[C@H](CC(=O)NCC3CCCCC3)O[C@@H]1CO2", "values": [{"measurement": "AC50", "setting": "[10]", "result": "> 30 µM (inactive)"}]}, {"compound": "Cc1nc2ccc(C(=O)O)cc2c2c1CC(C)S2", "note": "(centres undefined)", "values": [{"measurement": "IC50", "setting": "[11]", "result": "26.3 µM (active)"}, {"measurement": "IC50", "setting": "14-3-3 protein gamma", "result": "25.7 µM (active)"}, {"measurement": "IC50", "setting": "Bcl-2-like protein 10", "result": "> 100 µM (inactive)"}, {"measurement": "IC50", "setting": "[12]", "result": "16.2 µM (active)"}]}, {"compound": "C[C@@H]1CN([C@H](C)CO)C(=O)c2cccc(NC(=O)c3ccncc3)c2O[C@H]1CN(C)Cc1ccccc1", "values": [{"measurement": "IC50", "setting": "[13]", "result": "> 100 µM (inactive)"}, {"measurement": "IC50", "setting": "[14]", "result": "6.14 µM (inactive)"}, {"measurement": "AC50", "setting": "[15]", "result": "64 nM (active)"}, {"measurement": "IC50", "setting": "[16]", "result": "> 100 µM (inactive)"}, {"measurement": "AC50", "setting": "[17]", "result": "5.61 nM (active)"}, {"measurement": "AC50", "setting": "[18]", "result": "80 nM (active)"}, {"measurement": "IC50", "setting": "[19]", "result": "14.4 nM (active)"}, {"measurement": "IC50", "setting": "[20]", "result": "5.64 µM (inactive)"}, {"measurement": "IC50", "setting": "[21]", "result": "5.64 µM (inactive)"}]}, {"compound": "c1ccc(-c2cc(NCCCN3CCCCC3)c3ccccc3n2)cc1", "values": [{"measurement": "IC50", "setting": "[22]", "result": "2.98 µM (active)"}, {"measurement": "IC50", "setting": "[23]", "result": "1.56 µM (active)"}]}, {"compound": "C[C@@H]1CN([C@@H](C)CO)C(=O)c2cccc(NS(=O)(=O)c3ccc(F)cc3)c2O[C@@H]1CN(C)Cc1ccc(C(F)(F)F)cc1", "values": [{"measurement": "AC50", "setting": "[24]", "result": "4.05 µM (active)"}, {"measurement": "AC50", "setting": "[25]", "result": "43.9 µM (active)"}, {"measurement": "AC50", "setting": "[26]", "result": "451 nM (active)"}, {"measurement": "AC50", "setting": "[27]", "result": "295 nM (active)"}]}, {"compound": "Cc1nc2c(-c3ccccc3)cnn2c(N2CCOCC2)c1C", "values": [{"measurement": "EC50", "setting": "[28]", "result": "246 nM (active)"}, {"measurement": "EC50", "setting": "[29]", "result": "246 nM (active)"}, {"measurement": "EC50", "setting": "[30]", "result": "2.38 µM (active)"}, {"measurement": "EC50", "setting": "H4", "result": "108 nM (active)"}, {"measurement": "EC50", "setting": "[31]", "result": "< 100 nM (active)"}]}]}
